The sequences below were run on T2 cells pulsed with CD133 HLA-A2 peptides (assay: IFN-γ ELISPOT assay of antigen-specific T cell response). Conditions: 1×10^5 CTL co-cultured with 7.5×10^4 T2 cells pulsed with 10 μg/ml of peptides, 20 hours; FIG. 3.
Type: cell-based, human
Experimental: To test this hypothesis, effector CD8^+′ T cells were isolated and co-cultured with HLA-A2+ DC pulsed with CD133 peptides to induce antigen-specific CTLs. Antigens-specific T cell responses were evaluated by an IFN-γ ELISPOT assay.
Human monocyte-derived DC was generated using previously described methods. Briefly, monocytes were isolated from PBMC by magnetic immunoselection using EasySep human monocyte enrichment kit (Stem Cell Technologies) in accordance with the manufacturer's instructions and then cultured at […] in 20 ml of GMP CellGenix DC serum-free medium (Cat#20801-0500, Cellgenix) supplemented with 1000 unit/ml of recombinant human GM-CSF (Cat#AF-300-03, Peprotech, Inc) and recombinant human IL-4(Cat#AF-200-04, Peprotech, Inc). Cells were harvested after 3 or 6 days of culture. The DCs were washed and plated in 6-well plates at a concentration of 5×10^6 cells/well IFN-γ (1000 unit/ml) and monophosphoryl lipid A (MPLA, 20-50 μg/ml) was added into the wells to mature the DC for 24 hr or 48 hrs. Prior to some assays, DC was frozen and stored into liquid nitrogen.
In order to evaluate antigen-specific immune responses, CD8^+ T cells were isolated from fresh or frozen apheresis by positive selection using Dynabeads® CD8 Positive Isolation Kit (Life Technologies, Grand Island, N.Y.) and co-cultured with autologous mDC for four weeks. DCs were added weekly. Briefly, mDC was pulsed with synthetic peptides ([…]) for 6-8 hours at 37° C., and then treated with 20 μg/ml Mitomycin C (Sigma-Aldrich, St. Louis, Mo.) for 25 min at 37° C. and 5% CO2. […]
Antigen-specific immune responses were evaluated by the IFN-γ Elispot kit (BD Biosciences) following previously described methods. […] The colored spots, representing cytokine-producing cells, were counted under a dissecting microscope. The results were evaluated by an automated ELISPOT reader system using KS ELISPOT 4.3 software.

Q: Which “antigen-specific T cell response: recognition of peptide-pulsed T2 cells by peptide-specific CTLs (IFN-γ ELISPOT)” value (“antigen-specific T cell response” for short) does the source give for “FLLPALIFAV (listed as Homo sapiens) [CD133p804, CD133 HLA-A2 peptide, position 804-813]” here?
A: Its value is “can efficiently recognize T2 pulsed with these antigens and boost the T cell immune response”.

Q: With “ILSAFSVYV (listed as Homo sapiens) [CD133p405, CD133 HLA-A2 peptide, position 405-413]” as the sequence, how does the “antigen-specific T cell response” value read?
A: Its value is “can efficiently recognize T2 pulsed with these antigens and boost the T cell immune response”.

Q: For “YLQWIEFSI (listed as Homo sapiens) [CD133p753, CD133 HLA-A2 peptide]”, which “antigen-specific T cell response” value is on record?
A: The value was “can efficiently recognize T2 pulsed with these antigens and boost the T cell immune response”.
